Calls of active or inactive are those of the source. How the calls were made is not given here.
Test system: CCRIS mutagenicity, Ames/micronucleus/aberration tests
Experiment: CCRIS mutagenicity studies
[1] = Test System: AMES SALMONELLA TYPHIMURIUM, Strain/Indicator: TA1535, Metabolic Activation: NONE, Method: PREINCUBATION
[2] = Test System: AMES SALMONELLA TYPHIMURIUM, Strain/Indicator: TA97, Metabolic Activation: NONE, Method: STANDARD PLATE
[3] = Test System: AMES SALMONELLA TYPHIMURIUM, Strain/Indicator: TA98, Metabolic Activation: NONE, Method: STANDARD PLATE
[4] = Test System: AMES SALMONELLA TYPHIMURIUM, Strain/Indicator: TA98, Metabolic Activation: RAT, LIVER, S-9, AROCLOR 1254, Method: STANDARD PLATE
[5] = Test System: AMES SALMONELLA TYPHIMURIUM, Strain/Indicator: TA100, Metabolic Activation: NONE, Method: STANDARD PLATE
[6] = Test System: AMES SALMONELLA TYPHIMURIUM, Strain/Indicator: TA100, Metabolic Activation: RAT, LIVER, S-9, AROCLOR 1254, Method: STANDARD PLATE

Measured: mutagenic call

C/C=C/C=O
active: End Point: IN VITRO CHROMOSOMAL ABERRATIONS, Test System: CHINESE HAMSTER OVARY CELLS, Metabolic Activation: NONE active; positive | End Point: IN VITRO CHROMOSOMAL ABERRATIONS, Test System: CHINESE HAMSTER OVARY CELLS, Metabolic Activation: RAT, LIVER, S-9, AROCLOR 1254 active; positive | End Point: IN VITRO CHROMOSOMAL ABERRATIONS, Test System: CHL CELLS, Metabolic Activation: RAT, LIVER, S-9, SODIUM PHENOBARBITAL AND 5,6-BENZOFLAVONE active; positive (structural changes) | End Point: In vivo chromosomal aberrations, Test System: Bone marrow, Species: Mouse, Strain/Sex: Swiss/ 3 males and 2 females per group, Route: Intraperitoneal active; positive (statistically significant at all doses and durations) (structural aber | End Point: In vivo chromosomal aberrations, Test System: Spermatocytes, Species: Mouse, Strain/Sex: Swiss/males, Route: Intraperitoneal active; positive (dose-related) (autosomal univalents, x-y univalents, fragments or brea | Test System: AMES SALMONELLA TYPHIMURIUM, Strain/Indicator: TA98, Metabolic Activation: NONE, Method: FLUCTUATION (MICROTITER) active; positive | Test System: AMES SALMONELLA TYPHIMURIUM, Strain/Indicator: TA98, Metabolic Activation: NONE, Method: PREINCUBATION active; positive | Test System: AMES SALMONELLA TYPHIMURIUM, Strain/Indicator: TA98, Metabolic Activation: RAT LIVER S-9, PHENOBARBITAL AND BETA-NAPHTHOFLAVONE, Method: PREINCUBATION active; positive | Test System: AMES SALMONELLA TYPHIMURIUM, Strain/Indicator: TA100, Metabolic Activation: NONE, Method: MODIFIED LIQUID SUSPENSION active; positive | Test System: AMES SALMONELLA TYPHIMURIUM, Strain/Indicator: TA100, Metabolic Activation: NONE, Method: PREINCUBATION active; positive | Test System: AMES SALMONELLA TYPHIMURIUM, Strain/Indicator: TA100, Metabolic Activation: NONE, Method: PREINCUBATION (THREEFOLD CELL DENSITY) active; positive | Test System: AMES SALMONELLA TYPHIMURIUM, Strain/Indicator: TA100, Metabolic Activation: RAT LIVER S-9, PHENOBARBITAL AND BETA-NAPHTHOFLAVONE, Method: PREINCUBATION active; positive | Test System: AMES SALMONELLA TYPHIMURIUM, Strain/Indicator: TA100, Metabolic Activation: RAT, LIVER, S-9, AROCLOR 1254, Method: MODIFIED LIQUID SUSPENSION active; positive | Test System: AMES SALMONELLA TYPHIMURIUM, Strain/Indicator: TA100, Metabolic Activation: RAT, LIVER, S-9, AROCLOR 1254, Method: PREINCUBATION (THREEFOLD CELL DENSITY) active; positive | Test System: AMES SALMONELLA TYPHIMURIUM, Strain/Indicator: TA104, Metabolic Activation: NONE, Method: PREINCUBATION active; positive | Test System: AMES SALMONELLA TYPHIMURIUM, Strain/Indicator: TA7002, Metabolic Activation: NONE, Method: FLUCTUATION (MICROTITER) active; positive | Test System: AMES SALMONELLA TYPHIMURIUM, Strain/Indicator: TA7004, Metabolic Activation: NONE, Method: FLUCTUATION (MICROTITER) active; positive | Test System: AMES SALMONELLA TYPHIMURIUM, Strain/Indicator: TA7005, Metabolic Activation: NONE, Method: FLUCTUATION (MICROTITER) active; positive | Test System: AMES SALMONELLA TYPHIMURIUM, Strain/Indicator: TA7006, Metabolic Activation: NONE, Method: FLUCTUATION (MICROTITER) active; positive
inactive: [1] inactive; negative | Test System: AMES SALMONELLA TYPHIMURIUM, Strain/Indicator: TA1535, Metabolic Activation: RAT LIVER S-9, PHENOBARBITAL AND BETA-NAPHTHOFLAVONE, Method: PREINCUBATION inactive; negative | Test System: AMES SALMONELLA TYPHIMURIUM, Strain/Indicator: TA1537, Metabolic Activation: NONE, Method: FLUCTUATION (MICROTITER) inactive; negative | Test System: AMES SALMONELLA TYPHIMURIUM, Strain/Indicator: TA1537, Metabolic Activation: RAT LIVER S-9, PHENOBARBITAL AND BETA-NAPHTHOFLAVONE, Method: PREINCUBATION inactive; negative | Test System: AMES SALMONELLA TYPHIMURIUM, Strain/Indicator: TA7001, Metabolic Activation: NONE, Method: FLUCTUATION (MICROTITER) inactive; negative | Test System: AMES SALMONELLA TYPHIMURIUM, Strain/Indicator: TA7003, Metabolic Activation: NONE, Method: FLUCTUATION (MICROTITER) inactive; negative | Test System: CHINESE HAMSTER OVARY, Strain/Indicator: AS52/6-THIOGUANINE, Metabolic Activation: NONE, Method: STANDARD PLATE inactive; negative | Test System: E.COLI, Strain/Indicator: WP2UVRA, Metabolic Activation: NONE, Method: PREINCUBATION inactive; negative | Test System: E.COLI, Strain/Indicator: WP2UVRA, Metabolic Activation: RAT LIVER S-9, PHENOBARBITAL AND BETA-NAPHTHOFLAVONE, Method: PREINCUBATION inactive; negative

c1ccc2nc3ccccc3cc2c1
active: Test System: AMES SALMONELLA TYPHIMURIUM, Strain/Indicator: TA1537, Metabolic Activation: RAT, LIVER, S-9, TETRACHLOROBIPHENYL, Method: PREINCUBATION active; positive
inactive: [2] inactive; negative | Test System: AMES SALMONELLA TYPHIMURIUM, Strain/Indicator: TA97, Metabolic Activation: RAT, LIVER, S-9, AROCLOR 1254, Method: STANDARD PLATE inactive; negative | [3] inactive; negative | [4] inactive; negative | [5] inactive; negative | [6] inactive; negative | [1] inactive; negative | Test System: AMES SALMONELLA TYPHIMURIUM, Strain/Indicator: TA1535, Metabolic Activation: RAT, LIVER, S-9, TETRACHLOROBIPHENYL, Method: PREINCUBATION inactive; negative | Test System: AMES SALMONELLA TYPHIMURIUM, Strain/Indicator: TA1537, Metabolic Activation: NONE, Method: PREINCUBATION inactive; negative | Test System: AMES SALMONELLA TYPHIMURIUM, Strain/Indicator: TA1538, Metabolic Activation: NONE, Method: PREINCUBATION inactive; negative | Test System: AMES SALMONELLA TYPHIMURIUM, Strain/Indicator: TA1538, Metabolic Activation: RAT, LIVER, S-9, TETRACHLOROBIPHENYL, Method: PREINCUBATION inactive; negative

CCCOc1cc(N=Nc2ccc(N(CCO)CCO)cc2)ccc1N=Nc1c(S(=O)(=O)O)cc2ccc(N)cc2c1O
active: [4] active; positive | Test System: AMES SALMONELLA TYPHIMURIUM, Strain/Indicator: TA1538, Metabolic Activation: RAT, LIVER, S-9, AROCLOR 1254, Method: STANDARD PLATE active; positive
inactive: [3] inactive; negative | [5] inactive; negative | [6] inactive; negative | Test System: AMES SALMONELLA TYPHIMURIUM, Strain/Indicator: TA1538, Metabolic Activation: NONE, Method: STANDARD PLATE inactive; negative

O=C1C=Cc2ccc3c4c(ccc1c24)C(=O)C=C3
active: [2] active; positive | Test System: AMES SALMONELLA TYPHIMURIUM, Strain/Indicator: TA97, Metabolic Activation: RAT, LIVER, S-9, PCB, Method: STANDARD PLATE active; positive
inactive: [3] inactive; negative | Test System: AMES SALMONELLA TYPHIMURIUM, Strain/Indicator: TA98, Metabolic Activation: RAT, LIVER, S-9, PCB, Method: STANDARD PLATE inactive; negative | [5] inactive; negative | Test System: AMES SALMONELLA TYPHIMURIUM, Strain/Indicator: TA100, Metabolic Activation: RAT, LIVER, S-9, PCB, Method: STANDARD PLATE inactive; negative

CC(=O)Nc1ccc2c3c(cccc13)-c1cc(O)ccc1-2
active: [3] active; positive | [4] active; positive
